This is an account of results in PMC9247258, “Synthesis and Biological Activity Evaluation of 2-Cyanopyrrole Derivatives as Potential Tyrosinase Inhibitors” (Frontiers in Chemistry, 2022).

Series [1] addresses T1, mushroom tyrosinase (Agaricus bisporus, UniProt C7FF04). Nature of the series: Mushroom tyrosinase inhibitory assay (L-DOPA as substrate). Type of series: biochemical. The arrangement: purchased Sigma (St. Louis, MO, United States). The following applies: for IC50: mushroom tyrosinase, L-DOPA substrate, absorbance 475 nm. The method, then: The mushroom tyrosinase activity assays of synthetic compounds were carried out according to the previously reported modification ([Qin et al., 2015]). L-DOPA was used as the substrate. Briefly, 800 μl of phosphate buffer (50 mM, pH 6.8), 50 μl of mushroom tyrosinase (666.67 U/ml, dissolved in PBS), and 50 μl of inhibitor (dissolved in DMSO) were placed in the plastic centrifuge tube. Then, 100 μl of L-DOPA (5 mM, dissolved in PBS) was added. Subsequently, its change in absorbance at 475 nm was measured in a time-dependent manner using a Beckman UV-650 spectrophotometer. The percentage inhibition was calculated by using [(OD0 - OD1)/OD0] × 100%, where OD0 was the absorbance without inhibitor, and OD1 was the absorbance with the inhibitor. The IC50 value of the potential compound was calculated from dose-response curves of percentage inhibition. Kojic acid was used as a standard control for comparison. All experiments were performed in duplicate.
Target sequence in this assay (C7FF04 1-392 limits assumed): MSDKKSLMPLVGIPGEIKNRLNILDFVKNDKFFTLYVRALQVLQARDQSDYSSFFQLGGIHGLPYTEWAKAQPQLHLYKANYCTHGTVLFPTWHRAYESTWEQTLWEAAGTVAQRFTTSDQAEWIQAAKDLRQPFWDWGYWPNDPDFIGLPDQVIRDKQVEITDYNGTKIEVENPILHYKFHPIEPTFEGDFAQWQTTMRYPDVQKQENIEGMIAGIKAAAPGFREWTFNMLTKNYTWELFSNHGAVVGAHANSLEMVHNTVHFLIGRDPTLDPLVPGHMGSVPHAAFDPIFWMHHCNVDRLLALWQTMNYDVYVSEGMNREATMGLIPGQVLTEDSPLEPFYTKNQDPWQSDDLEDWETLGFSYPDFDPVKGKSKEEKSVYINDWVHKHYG

Series [2] concerns the target T1, mushroom tyrosinase. Nature of the series: Inhibition mechanism and kinetic analysis (v vs [E] plots, Lineweaver-Burk plot). The series is classed as biochemical. The method, then:
Experiments were performed to analyze the inhibitory mechanism by the following method. For the text, the mushroom tyrosinase at a final concentration of 16.67–100.00 U/ml and L-DOPA at a final concentration of 0.5 mM were chosen. Then, the mushroom tyrosinase activity was measured in the presence of the inhibitor.
The inhibition type of the inhibitor on mushroom tyrosinase was evaluated by the Lineweaver–Burk plot, and the inhibition constants were obtained from the second plots of the apparent 1/Vmax and Km/Vmax against the inhibitor concentration. In this assay, mushroom tyrosinase at a final concentration of 33.33 U/ml and L-DOPA at a final concentration of 0.25–2 mM were used. The equation for the Lineweaver–Burk plot can be written as follows: 1/v−Km/Vm(1+[I]/KI)+1/Vm(1+[I]/KIS) where v is the reaction velocity, Km is the Michaelis constant, Vm is the maximal velocity, [I] is the concentration of the inhibitor, [S] is the concentration of the substrate, KI is the constant for the inhibitor binding with the free enzyme, and KIS is the constant for the inhibitor binding with the enzyme-substrate complex. KI and KIS were obtained from the slope or the vertical intercept vs. the inhibitor concentration, respectively.
Target sequence in this assay (C7FF04 2-392): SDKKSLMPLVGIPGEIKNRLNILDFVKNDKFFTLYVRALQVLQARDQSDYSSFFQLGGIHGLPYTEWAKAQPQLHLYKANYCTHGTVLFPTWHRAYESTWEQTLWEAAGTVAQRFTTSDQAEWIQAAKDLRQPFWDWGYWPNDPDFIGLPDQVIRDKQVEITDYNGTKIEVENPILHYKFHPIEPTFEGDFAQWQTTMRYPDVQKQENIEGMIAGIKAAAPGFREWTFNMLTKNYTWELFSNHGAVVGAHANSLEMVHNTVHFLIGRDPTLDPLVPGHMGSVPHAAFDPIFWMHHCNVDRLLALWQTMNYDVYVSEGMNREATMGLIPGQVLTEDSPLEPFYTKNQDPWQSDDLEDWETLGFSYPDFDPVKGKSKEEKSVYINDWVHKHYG

Series [3] relates to B16 melanoma cells. Nature of the series: MTT assay, cell cytotoxicity. The series is classed as cell-based, mouse. The following applies: 24 h treatment, under a concentration of 100 μM. The procedure:
B16 mouse melanoma cells were cultured in Dulbecco’s modified Eagle’s medium (DMEM) containing 10% fetal bovine serum and 1% penicillin/streptomycin at 37°C in a 5% CO2 incubator. B16 cells (100 µl) were plated in a 96-well plate (5 × 10^3 cells/well) for 24 h and then treated with a 100 µl complete medium containing A12 or kojic acid for 24 h. MTT solution (0.5 mg/ml, final concentration) was added to each well, and plates were incubated at 37°C for another 3 h. The absorbance was measured at 490 nm using a multi-detection microplate reader.
(In general: Tetrazolium dyes change colour on reduction, which living cells bring about.)

Series [4] concerns tyrosinase in B16 melanoma cells. Nature of the series: Cellular tyrosinase activity. The following applies: Mus musculus, 48 h incubation. The series is classed as cell-based. The method, then: B16 mouse melanoma cells were cultured in Dulbecco’s modified Eagle’s medium (DMEM) containing 10% fetal bovine serum and 1% penicillin/streptomycin at 37°C in a 5% CO2 incubator. The inhibitory activity of A12 on tyrosinase in B16 cells was evaluated. B16 cells (5 × 10^4 cells/well) were plated in 96-well plates and incubated for 24 h. A measure of 100 µl of complete medium including A12 or kojic acid was added for further incubation of 48 h. Then, cells were added to 50 µl Triton X-100 (1%) and allowed for freezing for 1 h at −80°C. After thawing at room temperature, 10 μl L-DOPA solutions (0.1%, w/v) were added and co-incubated for 1 h at 37°C. The absorbance at 405 nm was measured.

Bounds are passed on as bounds.

In turn, `Cn1ccc(-c2ccccc2)c1C#N` [Compound A1] had an IC50 in series [1] of 7.42 µM. That is a single-digit micromolar value.

For `Cn1ccc(-c2ccccc2F)c1C#N` [Compound A2], half-maximal inhibition in series [1] (IC50) was put at 8.72 µM.

As to `Cn1ccc(-c2cccc(F)c2)c1C#N` [Compound A3], half-maximal inhibition in series [1] (IC50) was put at 21.4 µM. In turn, `Cn1ccc(-c2ccccc2Br)c1C#N` [Compound A4] had an IC50 in series [1] of 8.47 µM.

Compound `Cn1ccc(-c2cccc(Br)c2)c1C#N` [Compound A5] yielded an IC50 in series [1] of 16.5 µM. Still for that read-out and setting: the same measure for `Cn1ccc(-c2ccc(Br)cc2)c1C#N` [Compound A6]: 8.17 µM. As to `COc1ccccc1-c1ccn(C)c1C#N` [Compound A7], the midpoint of inhibition in series [1], the IC50, lay at 23.6 µM. Same read-out and setting: the same measure for `COc1ccc(-c2ccn(C)c2C#N)cc1` [Compound A8]: 89.2 µM; for `Cn1ccc(-c2ccc(C(F)(F)F)cc2)c1C#N` [Compound A9]: 12.4 µM. `Cn1ccc(-c2cccc(Cl)c2Cl)c1C#N` [Compound A10] had an IC50 in series [1] of 4.83 µM.

In series [1], `COc1ccc(Br)cc1-c1ccn(C)c1C#N` [Compound A11] had a half-maximal inhibitory concentration (IC50) of 2.11 µM.

For the compound `C=Cc1ccccc1-c1ccn(C)c1C#N` [Compound A12], in series [2] (Lineweaver-Burk double reciprocal plots, L-DOPA 0.25-2 mM, tyrosinase 33.33 U/ml), the inhibition type entry is on record as “mixed-type”. For the same compound, the “reversibility of tyrosinase inhibition” value in series [2] (plots of initial velocity vs tyrosinase concentration, L-DOPA 0.5 mM) is recorded as “reversible”. The “KIS, equilibrium constant for inhibitor binding with enzyme-substrate complex” value in series [2] (second plot of apparent 1/Vmax vs inhibitor concentration) amounted to 1.00 µM. In addition, the “cell cytotoxicity on B16 melanoma cells” value in series [3] was “no cytotoxicity”. The inhibition at 100 µM in series [4] was 33.5%. This compound also came in with an IC50 in series [1] of 0.97 µM. Besides, in series [1] (ratio of tyrosinase IC50 values, kojic acid vs compound), the “times stronger than the reference inhibitor kojic acid” value is roughly 30 times. In the case of `CCn1c(C)cc(-c2ccccc2)c1C#N` [Compound A13], the IC50 in series [1] is 4.46 µM. `N#Cc1c(-c2ccc(Cl)cc2)ccn1Cc1ccccc1` [Compound A14] gave an IC50 in series [1] of 80.5 µM. `Cn1c(-c2ccccc2)cc(-c2ccc(Cl)cc2)c1C#N` [Compound A15] showed an IC50 in series [1] of 87.3 µM.

The compound `N#Cc1c(-c2ccc(Cl)cc2)cc2n1CCCC2` [Compound A16] yielded a half-inhibitory concentration (IC50) in series [1] of 5.06 µM. The compound `N#Cc1c(-c2ccc(Cl)cc2)cc2n1Cc1ccccc1C2` [Compound A17] gave an IC50 in series [1] of 5.57 µM. On to `Cn1ccc(-c2cccc(Br)c2)c1C(N)=O` [Compound B1, 3-(3-Bromophenyl)-1-methyl-1H-pyrrole-2-carboxamide], for which the IC50 in series [1] is greater than 200 µM. `Cn1ccc(-c2ccc(Br)cc2)c1C(N)=O` [Compound B2, 3-(4-Bromophenyl)-1-methyl-1H-pyrrole-2-carboxamide] returned a melting point of 172 to 174 °C. Further, the IC50 in series [1] was greater than 200 µM. On the same counts, the results for `Cn1ccc(-c2ccc(Br)cc2)c1CNC(=O)OC(C)(C)C` [Compound B3, tert-Butyl ((3-(4-bromophenyl)-1-methyl-1H-pyrrol-2-yl)methyl)carbamate] are 109 to 113 °C and greater than 200 µM. As to `Cn1ccc(-c2cccc(F)c2)c1CNC(=O)OC(C)(C)C` [Compound B4, tert-Butyl ((3-(3-fluorophenyl)-1-methyl-1H-pyrrol-2-yl)methyl)carbamate], the melting point was in the range of 103 to 104 °C. In series [1], the IC50 was greater than 200 µM. The corresponding values for `Cn1ccc(-c2cccc(Br)c2)c1CNC(=O)OC(C)(C)C` [Compound B5, tert-Butyl ((3-(3-bromophenyl)-1-methyl-1H-pyrrol-2-yl)methyl)carbamate] are 124 to 127 °C and greater than 200 µM. The corresponding values for `Cn1ccc(-c2ccccc2)c1CNC(=O)OC(C)(C)C` [Compound B6, tert-Butyl ((1-methyl-3-phenyl-1H-pyrrol-2-yl)methyl)carbamate] are 87 to 90 °C and greater than 200 µM. On the same counts, the results for `Cn1ccc(-c2ccc(C(F)(F)F)cc2)c1CNC(=O)OC(C)(C)C` [Compound B7, tert-Butyl ((1-methyl-3-(4-(trifluoromethyl)phenyl)-1H-pyrrol-2-yl)methyl)carbamate] are 120 to 122 °C and greater than 200 µM. The compound `Cn1ccc(-c2ccccc2F)c1CNC(=O)OC(C)(C)C` [Compound B8, tert-Butyl ((3-(2-fluorophenyl)-1-methyl-1H-pyrrol-2-yl)methyl)carbamate] yielded a melting point of 81 to 84 °C. The same compound came in with a half-inhibitory concentration (IC50) in series [1] greater than 200 µM.

On to `O=c1cc(CO)occ1O` [Kojic acid, reference compound], for which the “cell cytotoxicity on B16 melanoma cells” value in series [3] was “no cytotoxicity”. This compound displayed an inhibition at 100 µM in series [4] of 39.8%.

Broadly, the IC50 is the point on the concentration scale where inhibition reaches its midpoint. Low readings indicate inhibition by little substance, high ones a need for much substance. In general, inhibition refers to the relative decrease from the control value, in per cent. A high value points to a response far below the control. In general, melting point refers to the temperature, or range, at which the solid turns liquid.
